From US11311609B2, “Regulating chimeric antigen receptors” (DANA-FARBER CANCER INSTITUTE, INC., priority 2017, dated 2022)

Biological target: T1, FKBP* (Homo sapiens, UniProt P62942, F37V)
T1 construct: HA; expressed in transfected cells; host or cells: 293FT cells (CRBN-WT or CRBN-/-)
Test: Immunoblot of FKBP* degradation in 293FT cells (CRBN-WT or CRBN-/-)
Format: cell-based
Details: 4 hours
Method: FIG. 6 is an immunoblot of cells treated with bi-functional molecules described in the present invention. As described in Example 3, 293FT cells (CRBN-WT or CRBN−/−) expressing either HA-tagged FKBP12WT or FKBP* (also referred to as dFKBP12* herein) were treated with indicated concentrations of dFKBP7 for 4 hours.
FIG. 8 is an immunoblot of cells treated with heterobifunctional compounds described in the present invention. Isogenic 293FT cells (CRBN-WT or CRBN−/−) expressing either FKBP12WT or FKBP* were treated with 100 nM of either dFKBP7 or dFKBP13 for 4 hours (Example 5).
FIG. 9 is an immunoblot of cells treated with heterobifunctional compounds described in the present invention. Isogenic 293FT cells (CRBN-WT or CRBN−/−) expressing HA-tagged FKBP* were treated with the indicated dose of dFKBP13 for 4 hours (Example 6).
FIG. 11 is an immunoblot of cells treated with heterobifunctional compounds described in the present invention. 293FT cells (CRBN-WT) expressing FKBP* were pretreated with 1 uM Carfilzomib (proteasome inhibitor), 0.5 uM MLN4924 (neddylation inhibitor), and 10 uM Lenalidomide (CRBN binding ligand) for two hours prior to a 4 hour treatment with dFKBP13 (Example 8). Degradation of HA-tagged FKBP* by dFKBP13 was rescued by the proteasome inhibitor Carfilzomib, establishing a requirement for proteasome function.
The dTAG is predicated on the selectivity of FKBP* specific ligands over endogenous, wild type FKBP. In 293T cells expressing wild type FKBP12 or FKBP*, dFKBP7 induces targeted degradation only in FKBP* expressing cells. An immunoblot of cells treated with bi-functional molecules described in the present invention was performed. 293FT cells (CRBN-WT or CRBN−/−) expressing either HA-tagged FKBP12WT or FKBP* were treated with indicated concentrations of dFKBP7 for 4 hours.
In 293T cells expressing wild type FKBP12 or FKBP*, treatment with dFKBP7 and dFKBP13 induces targeted degradation only in FKBP* expressing cells. Isogenic 293FT cells (CRBN-WT or CRBN−/−) were engineered to express either FKBP12WT or FKBP*. Cells were treated with 100 nM of either dFKBP7 or dFKBP13 for 4 hours before lysates were prepared for western immunoblot analysis.
In an effort to define the optimal concentration of dFKB13 heterobifunctional compounds to induce degradation of FKBP*, degradation was measured upon treatment with increasing concentrations of dFKBP13. Isogenic 293FT cells (CRBN-WT or CRBN−/−) were engineered to expressed HA-tagged FKBP*. Cells were treated with the indicated dose of dFKBP13 for 4 hours before lysates were prepared for western immunoblot analysis.
293FT cells (CRBN-WT) were engineered to express FKBP*. Cells were pretreated with 1 uM Carfilzomib (proteasome inhibitor), 0.5 uM MLN4924 (neddylation inhibitor), and 10 uM Lenalidomide (CRBN binding ligand) for two hours prior to a 4-hour treatment with dFKBP13. Lysates were prepared and western immunoblot analysis performed. Degradation of HA-tagged FKBP* by dFKBP13 was rescued by the proteasome inhibitor Carfilzomib, establishing a requirement for proteasome function.

T1 sequence (P62942 whole entry F37V): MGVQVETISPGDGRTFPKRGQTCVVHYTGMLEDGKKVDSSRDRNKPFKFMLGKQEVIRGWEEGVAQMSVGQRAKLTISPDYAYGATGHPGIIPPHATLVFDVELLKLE

## CC[C@H](C(=O)N1CCCC[C@H]1C(=O)O[C@H](CCc1ccc(OC)c(OC)c1)c1cccc(OCC(=O)NCCCOCCOCCOCCCNC(=O)COc2cccc3c2C(=O)N(C2CCC(=O)NC2=O)C3=O)c1)c1cc(OC)c(OC)c(OC)c1 (some centres unmarked) [dFKBP7]
293FT cells CRBN-WT or CRBN-/-, indicated concentrations
  Degradation of HA-tagged FKBP* (immunoblot): CRBN-dependent degradation of FKBP*
Isogenic 293FT cells CRBN-WT or CRBN-/-, 100 nM
  Degradation of FKBP* (immunoblot): CRBN-dependent degradation of FKBP*
